One data set relates to Sarcoma 180 solid tumour. As to the kind of experiment: animal or person. It is filed as in vivo, mice (ddy strain). As to conditions: for ED50: Mus musculus, Sarcoma-180, ip, 168 h, read-out: ED50 ip. The source says: (§1) Certain compounds were selected from Compounds I. The following Table 4 indicates anti-tumour activity against Sarcoma 180 solid tumour (ED50), acute toxicity (LD50) and effects on the peripheral leucocytes (WBC4000) of each compound.
(1) Effect against Sarcoma 180 solid tumour:
5×10^6 cells of Sarcoma 180 solid tumour cells were abdominally implanted into male mice of ddy strain. 7 days after this, ascites cells were sampled. The cells were washed once with a sterilized physiological solution of sodium chloride and were used to prepare a cell suspension containing 5×10^7 cells per ml. On each occasion, 0.1 ml of the cell suspension was subcutaneously implanted into the right armpit of a male mouse (ddy strain; body weight 20±2 g). 24 hours after the implantation of the tumour cells, the test compound which was dissolved in a physiological solution of sodium chloride with or without addition of Tween 80 was abdominally administered to each mouse of a group consisting of 5 animals at a does of 0.1-0.2 ml. The anti-tumour activity was determined as follows:
7 days after the implantation, the major axis (a) and the minor axis (b) of the tumour were measured to calculate a value of "a×b^2 /2" which corresponds to the volume of the tumour. The anti-tumour activity was expressed by T/C viz. the ratio of the volume of the tumours (T) of the group of animals administered with the test compound to the corresponding volume of tumours (C) of the untreated animals.
(2) Determination of ED50 :
The term ED50 denotes the administered amount needed for reducing the volume of Sarcoma 180 solid tumours in the animals to 50% on the basis of the corresponding volume of Sarcoma 180 solid tumours in control (untreated) animals.
On graph paper, T/C was indicated by an arithmetic scale on the longitudinal axis and the administered amount of test compound was indicated by a logarithmic scale on the lateral axis.

The next data set can be described thus: Acute toxicity. It is filed as in vivo, mice (ddy). As to conditions: mouse, in vivo, ip; for LD50 at 336 h: ddy mice, single i.p., 14 days, Behren Korber's method; for selectivity ratio: read-out: (C.I.)* = (LD50/ED50)/[(LD50/ED50) of MMC1]. As to the method: as §1
Each animal of the test group consisting of 5 ddy mice was once administered (i.p.) with a test compound. […] The LD50 was determined by Behren Korber's method.

The nature of the next data set: in vivo. The class given is in vivo, mice (ddy strain). Conditions: mouse, in vivo, ip; read-out: (WBC4000/ED50)* = (WBC4000/ED50)/[(WBC4000/ED50) of MMC1]. The procedure: as §1
(4) Effect upon the number of the peripheral leucocytes:
Sarcoma 180 solid tumour cells (5×10^6) were subcutaneously implanted into the right armpit of each mouse (body weight 20±2 g) of a group consisting of 5 male mice (ddy strain). 24 hours after implantation,a test compound was abdominally administered to each mouse. 4 days later, blood (each 0.02 ml) was collected from the suborbital plexus vein of each tumour-carrying mouse. The collected sample of blood was dispersed in 9.98 ml of Cell-kit Seven solution. One drop of saponin solution was added to the sample to dissolve erythrocytes and then a microcell counter was used to measure the number of leucocytes. On graph paper, the number of leucocytes was indicated on the y-axis by an arithmetic scale and the does of the test compound was indicated on the x-axis by a logarithmic scale.
The relationship between the number of peripheral leucocytes and the dosage of the test compound was plotted to obtain WBC4000 viz. the dosage corresponding to […] per mm^3 (about half of the number of leucocytes of normal mice).

In the data set with Sarcoma 180 solid tumour (ddy mice, i.p. 24 h after implantation, 50% reduction of tumour volume at day 7), “7-N-[2-[[2-[[(1S)-5-amino-1-carboxypentyl]carbamoyl]ethyl]dithio]ethyl]mitomycin C [Compound 23]” yielded an ED50 ip of 6.2 mg/kg.
For orientation: ED50 means the dose at which the effect has come halfway, by size or by number of responders. As usually defined, the LD50 is the dose expected to kill half of the subjects tested. As for `CC1=C(NCCSSCCNC(=O)C[C@H](N)C(=O)O)C(=O)C2=C(C1=O)N1C[C@H]3[C@H](N3C)[C@]1(O)[C@H]2COC(N)=O` (stereo partly drawn) [Compound 10, 7-N-[2-[[2-(N^4 -L-asparagino)ethyl]dithio]ethyl]mitomycin D], the ED50 in the data set on Sarcoma 180 solid tumour amounted to 13 mg/kg. Besides, in “Acute toxicity”, the LD50 at 336 h came to 75 mg/kg and the selectivity ratio is 2.19. Further, the selectivity ratio in “in vivo” came to 2.5.
The like results for `CC1=C(NCCSSCCNC(=O)CC[C@@H](N)C(=O)O)C(=O)C2=C(C1=O)N1C[C@H]3[C@H](N3C)[C@]1(O)[C@H]2COC(N)=O` (stereo partly drawn) [Compound 11, 7-N-[2-[[2-(N^5 -D-glutamino)ethyl]dithio]ethyl]mitomycin D] were, in that order, 16.9 mg/kg, 75 mg/kg, 1.59 and 1.64.
On the same counts, the results for `CC1=C(NCCSSCCNC(=O)[C@@H]2CCC(=O)N2)C(=O)C2=C(C1=O)N1C[C@H]3[C@H](N3C)[C@]1(O)[C@H]2COC(N)=O` (stereo partly drawn) [Compound 12, 7-N-[2-[[2-(L-pyroglutamylamino)ethyl]dithio]ethyl]mitomycin D] are 18.4 mg/kg, 75 mg/kg, 1.8 and 5.57.
On the same counts, the results for `CO[C@@]12[C@H](COC(N)=O)C3=C(C(=O)C(C)=C(NCCSSCCNC(=O)[C@@H]4CCCN4)C3=O)N1C[C@@H]1N[C@@H]12` [Compound 13, 7-N-[2-[[2-(L-prolylamino)ethyl]dithio]ethyl]mitomycin C] are 12.2 mg/kg, 30 mg/kg, 1.17 and 2.3.
`CO[C@@]12[C@H](COC(N)=O)C3=C(C(=O)C(C)=C(NCCSSCCNC(=O)CCC(=O)Oc4c(C)c(C)c5c(c4C)CC[C@@](C)(CCC[C@H](C)CCC[C@H](C)CCCC(C)C)O5)C3=O)N1C[C@@H]1N[C@@H]12` [Compound 16]: the median effective dose (ED50) with Sarcoma 180 solid tumour was 95.9 mg/kg. Further, in “Acute toxicity”, the LD50 at 336 h is greater than 100 mg/kg and the selectivity ratio was greater than 0.37. The selectivity ratio in “in vivo” was found to be 1.2.
The like results for `CC1=C(NCCSSCCNC=O)C(=O)C2=C(C1=O)N1C[C@H]3[C@H](N3C)[C@]1(O)[C@H]2COC(N)=O` (stereo partly shown) [Compound 18, 7-N-[2-[(2-formamidoethyl)dithio]ethyl]mitomycin D] were, in that order, 10.6 mg/kg, 52.5 mg/kg, 1.94 and 3.89.
On the same counts, the results for `CO[C@@]12[C@H](COC(N)=O)C3=C(C(=O)C(C)=C(NCCSSCCNC(=O)C(F)(F)F)C3=O)N1C[C@@H]1N[C@@H]12` [Compound 19, 7-N-[2-[(2-trifluoroacetamidoethyl)dithio]ethyl]mitomycin C] are 8.7 mg/kg, 9.4 mg/kg, 0.51 and greater than 0.96.
On the same counts, the results for `CC1=C(NCCSSCCNC(=O)C(F)(F)F)C(=O)C2=C(C1=O)N1C[C@H]3[C@H](N3C)[C@]1(O)[C@H]2COC(N)=O` (stereo partly shown) [Compound 20, 7-N-[2-[(2-trifluoroacetamidoethyl)dithio]ethyl]mitomycin D] are 11.6 mg/kg, 30 mg/kg, 0.93 and 4.4.
Take `CO[C@@]12[C@H](COC(N)=O)C3=C(C(=O)C(C)=C(NCCSSCCC(=O)N[C@@H](CCCN)C(=O)O)C3=O)N1C[C@@H]1N[C@@H]12` [Compound 22, 7-N-[2-[[2-[[(1S)-4-amino-1-carboxybutyl]carbamoyl]ethyl]dithio]ethyl]mitomycin C]: the ED50 with Sarcoma 180 solid tumour came to 5 mg/kg.
Take `CC1=C(NCCSSCCC(=O)N[C@@H](CCCN)C(=O)O)C(=O)C2=C(C1=O)N1C[C@H]3[C@H](N3C)[C@]1(O)[C@H]2COC(N)=O` (stereo partly drawn) [Compound 24, 7-N-[2-[[2-[[(1S)-4-amino-1-carboxybutyl]carbamoyl]ethyl]dithio]ethyl]mitomycin D]: the ED50 with Sarcoma 180 solid tumour came out at 31.2 mg/kg. Besides, in “Acute toxicity”, the median lethal dose (LD50) at 336 h is greater than 100 mg/kg and the selectivity ratio was greater than 1.53. Also, in “in vivo”, the selectivity ratio worked out at 2.02.
On the same counts, the results for `CC1=C(NCCSSCCC(=O)N[C@@H](CCCCN)C(=O)O)C(=O)C2=C(C1=O)N1C[C@H]3[C@H](N3C)[C@]1(O)[C@H]2COC(N)=O` (stereo partly drawn) [Compound 25, 7-N-[2-[[2-[[(1S)-5-amino-1-carboxypentyl]carbamoyl]ethyl]dithio]ethyl]mitomycin D] are 46.6 mg/kg, greater than 100 mg/kg, greater than 1.02 and 1.59.
Consider `CCOC(=O)CNC(=O)CCSSCCNC1=C(C)C(=O)C2=C(C1=O)[C@@H](COC(N)=O)[C@@]1(OC)[C@H]3N[C@H]3CN21` [Compound 29, 7-N-[2-[[2-[[(ethoxycarbonyl)methyl]carbamoyl]ethyl]dithio]ethyl]mitomycin C], for which the ED50 in the data set on Sarcoma 180 solid tumour was 9.4 mg/kg. For the same compound, in the data set “Acute toxicity”, the LD50 at 336 h was found to be 33.8 mg/kg and the selectivity ratio came out at 1.77. Further, in the data set “in vivo”, the selectivity ratio amounted to 2.9.
`CCOC(=O)CNC(=O)C(C)SSCCNC1=C(C)C(=O)C2=C(C1=O)[C@@H](COC(N)=O)[C@@]1(OC)[C@H]3N[C@H]3CN21` (stereo partly shown) [Compound 30, 7-N-[2-[[1-[[(ethoxycarbonyl)methyl]carbamoyl]ethyl]dithio]ethyl]mitomycin C]: in the data set with Sarcoma 180 solid tumour, the ED50 was found to be 10.3 mg/kg.
Consider `CO[C@@]12[C@H](COC(N)=O)C3=C(C(=O)C(C)=C(NCCSSCCC(=O)NCCc4ccc(O)c(O)c4)C3=O)N1C[C@@H]1N[C@@H]12` [Compound 31, 7-N-[2-[[2-[[2-(3,4-dihydroxyphenyl)ethyl]carbamoyl]ethyl]dithio]ethyl]mitomycin C], for which the ED50 with Sarcoma 180 solid tumour turned out to be 7.1 mg/kg. Moreover, in the data set “Acute toxicity”, the LD50 at 336 h is 26.3 mg/kg and the selectivity ratio worked out at 1.15. Also, the selectivity ratio in the data set “in vivo” turned out to be 2.28.
As for `CO[C@@]12[C@H](COC(N)=O)C3=C(C(=O)C(C)=C(NCCSSCCS(=O)(=O)O)C3=O)N1C[C@@H]1N[C@@H]12` [Compound 36, 7-N-[2-[(2-sulfoethyl)dithio]ethyl]mitomycin C], in the data set with Sarcoma 180 solid tumour, the median effective dose (ED50) worked out at 7 mg/kg.
Still for that read-out and setting: the value for `CO[C@@]12[C@H](COC(N)=O)C3=C(C(=O)C(C)=C(NCCSSCc4c[nH]c(=O)[nH]c4=O)C3=O)N1C[C@@H]1N[C@@H]12` [Compound 37, 7-N-[2-[[(2,4-dioxopyrimidin-5-yl)methyl]dithio]ethyl]mitomycin C] was 16.4 mg/kg.
Consider `CC1=C(NCCSSCc2c[nH]c(=O)[nH]c2=O)C(=O)C2=C(C1=O)N1C[C@H]3[C@H](N3C)[C@]1(O)[C@H]2COC(N)=O` (stereo partly shown) [Compound 38, 7-N-[2-[[(2,4-dioxopyrimidin-5-yl)methyl]dithio]ethyl]mitomycin D], for which the 50% effective dose (ED50) with Sarcoma 180 solid tumour was 24.5 mg/kg. In “Acute toxicity”, this compound registered an LD50 at 336 h greater than 150 mg/kg. In addition, the values for the selectivity ratio in the data set “Acute toxicity” and in “in vivo” were greater than 2.26 and greater than 8.71, respectively.
On the same counts, the results for `CC1=C(NCCSSCc2cn([C@H]3C[C@H](O)[C@@H](CO)O3)c(=O)[nH]c2=O)C(=O)C2=C(C1=O)N1C[C@H]3[C@H](N3C)[C@]1(O)[C@H]2COC(N)=O` (stereo partly shown) [Compound 40, 7-N-[2-[[(2'-deoxyuridin-5-yl)methyl]dithio]ethyl]mitomycin D] are 104 mg/kg, no less than 200 mg/kg, 1.22 and 0.95.

(Values after US5103018A, “Mitomycin derivatives” (Kyowa Hakko Kogyo Kabushiki Kaisha, priority 1986, dated 1992).)
